System: human skin fibroblasts
Test: migration of human skin fibroblasts in the 3D collagen gel assay
Assay type: cell-based
Settings: relative to control fibroblasts in the absence of test compound, FIG. 3
From the text: The results were plotted and are shown on the graph depicted in FIG. 3 in which compound (IV) is referred to as BDP 1. The data are expressed as fold-stimulation of migration relative to control fibroblasts in the absence of test compound. The range of base-line (control) migration is indicated by the horizontal dotted lines.

SMILES: COC(=O)CC1Nc2c(cccc2OCCC(C)C)CN(C)C1=O (stereo not shown) [Compound (IV)]
- fold-stimulation of migration relative to control fibroblasts: stimulated target cell migration with a bell-shaped dose-response similar in potency and profile to that of IGDS
